Source: patent US4894392A, “Aminoalkyl naphthalenediols as host resistance enhancers” (priority 1988, dated 1990)
Counter-ions that a name gives are not always drawn.

Test system: Pseudomonas aeruginosa
Assay: In vivo immunopotentiation against challenge with lethal doses of Pseudomonas aeruginosa (cyclophosphamide-immunocompromised mouse model)
Design: species or system random outbred albino CF1 female mice
Details: for Relative No. LD50's (Protective Index: number of LD50's of protection of treated animals over the LD50 of CY controls): CY 250 mg/kg i.p. 4 days before P. aeruginosa challenge, test compound injected once, 2 hours after CY
Protocol: An immunocompromised mouse model, established by intraperitoneal treatment of random outbred albino CF1 female mice (ca. 25 g) with 250 mg/kg body weight of cyclophosphamide (CY) 4 days prior to bacterial challenge with Pseudomonas aeruginosa, was used as the assay system. In this model, test compounds were injected only once (2 hours) after CY treatment. After bacterial challenge, LD50 's (50% lethal doses) were determined. Increased LD50 's in treated mice over controls indicated a return to normality. The LD50 for untreated or vehicle-treated mice was routinely 10^6 -10^7 colony forming units (CFU) of P. aeruginosa organisms. After CY treatment, the LD50 was reduced to 10^1 to 10^2 CFU's. The protection afforded by test compound (Protective Index) was determined by calculating the number of LD50 's of protection of treated animals over the LD50 of CY controls.

| Structure (SMILES) | Relative No. LD50's (Protective Index: number of LD50's of protection of treated animals over the LD50 of CY controls) | LD50 raised over untreated controls (cyclophosphamide-immune compromised mouse, P. aeruginosa lethal challenge) |
| --- | --- | --- |
| CC(C)(C)C1CCC(NCc2ccc3c(CNC4CCC(C(C)(C)C)CC4)c(O)ccc3c2O)CC1 (mixture of isomers) [Example 3, 1,6-Dihydroxy-2,5-bis-(4-tert-butylcyclohexylaminomethyl)-naphthalene dihydrochloride (mixture of isomers)] | 2128 | – |
| C[C@H]1CC[C@H](NCc2ccc3c(CN[C@H]4CC[C@H](C)CC4)c(O)ccc3c2O)CC1.Cl.Cl [Example 7, 1,6-Dihydroxy-2,5-bis-(trans-4-methylcyclohexylaminomethyl)-naphthalene dihydrochloride] | 1000 | – |
| Cl.Cl.Oc1ccc2c(O)c(CNCC3CCCCC3)ccc2c1CNCC1CCCCC1 [Example 2, 1,6-Dihydroxy-2,5-bis-(cyclohexylmethylaminomethyl)-naphthalene dihydrochloride] | 320 | – |
| CC1CCCCC1NCc1ccc2c(CNC3CCCCC3C)c(O)ccc2c1O (mixture of isomers) [Example 5, 1,6-Dihydroxy-2,5-bis-(2-methylcyclohexylaminomethyl)-naphthalene dihydrochloride (mixture of isomers)] | 133 | – |
| CC(C)(C)C1CCC(NCc2ccc3c(CNC4CCC(C(C)(C)C)CC4)c(O)ccc3c2O)CC1.Cl.Cl (single isomer, unassigned) [Example 4, 1,6-Dihydroxy-2,5-bis-(4-tert-butylcyclohexylaminomethyl)-naphthalene dihydrochloride (single isomer)] | 1000 | 1000 fold |
| CC1CCCC(NCc2ccc3c(CNC4CCCC(C)C4)c(O)ccc3c2O)C1 (mixture of isomers) [Example 6, 1,6-Dihydroxy-2,5-bis-(3-methylcyclohexylaminomethyl)-naphthalene dihydrochloride (mixture of isomers)] | 151 | – |
